Results taken from patent US20110209253A1, “Method for Improving Plant Health” (BASF SE, priority 2008, published 2011).
Like-named read-outs stand apart in the source and are kept apart here.

Tests used:
[1] = test system: Wheat plants (Triticum aestivum cv. Cubus); experiment: Growth-promoting effect on wheat plants after root treatment (hydroponic culture); format: in vivo; set-up: Shoot-FW ± SE / Root-FW ± SE: unit not given here; conditions: for Root-FW ± SE / Shoot-FW ± SE / activity at 1 µM / activity at 3 µM: seven days after treatment; for activity at 1 µM / activity at 3 µM: Triticum aestivum, 168 h
Procedure: Wheat plants (Triticum aestivum cv. Cubus) at the 2nd leaf stage were cultivated in 320 mL glass vessels with 300 mL half-strength Linsmaier-Skoog medium (Physiologia Plantarum 18: 100-127, 1964). The solution was aerated throughout experiment. The vessels were incubated randomized in a climate chamber under 16:8 h light:dark cycles (photon flux density 400 μmol m-2 s-1, 400-750 nm, Osram powerstar HQI-R 250W/NDL and Osram krypton 100W lamps) at 22° C. (light):20° C. (dark) and 75% relative humidity (3 plants per vessel, 9 replicate vessels). After 2 days of adaptation, plants were treated with Dimethyl-carbamic acid 2-methylcarbamoyl-2-[(1-methyl-3-trifluoromethyl-1H-pyrazole-4-carbonyl)-amino]-1-(tetrahydro-pyran-4-yl)-ethyl ester (compound 1) which was added to the medium in dimethyl sulfoxide (DMSO) solution (0.1% final concentration of DMSO). Controls received corresponding quantity of DMSO alone, with no adverse effect on the growth of the plants. Seven days after treatment, fresh weights (FW) of shoot and root, as the growth parameters, were measured and mean values±standard error (SE) of 27 plant parts was calculated.

[2] = test system: Wheat plants (Triticum aestivum cv. Monopol); experiment: Growth-promoting effect on wheat plants after foliar treatment (Example 2); format: in vivo; conditions: for Number of tillers: per plant; for activity at 7.81 g/ha / activity at 15.63 g/ha / activity at 31.25 g/ha: Triticum aestivum, 504 h
Procedure: Wheat plants (Triticum aestivum cv. Monopol) were grown in soil with ten plants per pot (13 cm diameter) under greenhouse conditions. Plants at the 2nd leaf stage were sprayed with an aqueous solution of formulated Dimethyl-carbamic acid 2-methylcarbamoyl-2-[(1-methyl-3-trifluoromethyl-1H-pyrazole-4-carbonyl)-amino]-1-(tetrahydro-pyran-4-yl)-ethyl ester (compound 1). The compound was applied at three different dose rates, i.e. 31.25/15.63/7.81 g ai/ha and the spray volume was 750 l/ha. Ten replicate pots with ten plants each were used per treatment. After three weeks (21 days) plants were harvested and growth parameters were determined. The recorded parameters were fresh weight, dry weigh, leaf area (all per pot) and number of tillers (per plant). Mean values of results, standard deviation (SD) and percentage to control were calculated.

[3] = 7.81 g/ha foliar spray, 21 days, per pot
[4] = 15.63 g/ha foliar spray, 21 days, per pot
[5] = 31.25 g/ha foliar spray, 21 days, per pot

SMILES: CNC(=O)C(NC(=O)c1cn(C)nc1C(F)(F)F)C(OC(=O)N(C)C)C1CCOCC1 (stereo not shown) [Compound 1, Dimethyl-carbamic acid 2-methylcarbamoyl-2-[(1-methyl-3-trifluoromethyl-1H-pyrazole-4-carbonyl)-amino]-1-(tetrahydro-pyran-4-yl)-ethyl ester]
- Root-FW ± SE ([1]; Experiment 1, 1 μM in medium): 0.403 ± 0.015
- Shoot-FW ± SE ([1]; Experiment 1, 1 μM in medium): 0.747 ± 0.017
- Root-FW ± SE ([1]; Experiment 1, 3 μM in medium): 0.382 ± 0.013
- Shoot-FW ± SE ([1]; Experiment 1, 3 μM in medium): 0.733 ± 0.019
- Root-FW ± SE ([1]; Experiment 2, 1 μM in medium): 0.342 ± 0.010
- Shoot-FW ± SE ([1]; Experiment 2, 1 μM in medium): 0.736 ± 0.024
- Root-FW ± SE ([1]; Experiment 2, 3 μM in medium): 0.335 ± 0.012
- Shoot-FW ± SE ([1]; Experiment 2, 3 μM in medium): 0.738 ± 0.021
- activity at 1 µM ([1]; Experiment 1, 1 μM in medium, read-out: Root-FW % of control): 113%
- activity at 1 µM ([1]; Experiment 1, 1 μM in medium, read-out: Shoot-FW % of control): 115%
- activity at 3 µM ([1]; Experiment 1, 3 μM in medium, read-out: Root-FW % of control): 107%
- activity at 3 µM ([1]; Experiment 1, 3 μM in medium, read-out: Shoot-FW % of control): 112%
- activity at 1 µM ([1]; Experiment 2, 1 μM in medium, read-out: Root-FW % of control): 105%
- activity at 1 µM ([1]; Experiment 2, 1 μM in medium, read-out: Shoot-FW % of control): 115%
- activity at 3 µM ([1]; Experiment 2, 3 μM in medium, read-out: Root-FW % of control): 103%
- activity at 3 µM ([1]; Experiment 2, 3 μM in medium, read-out: Shoot-FW % of control): 115%
- shoot tillering and adventitious root growth ([1]; root treatment): promoted
- stimulation of shoot and root growth relative to controls ([1]; root treatment, 1 and 3 μM, two experiments): up to 15%
- Number of tillers ([2]; 7.81 g/ha foliar spray, 21 days): 2.9
- Leaf area [2, 3]: 1121.1 cm^2
- Shoot DW [2, 3]: 4.4 g
- Shoot FW [2, 3]: 43.9 g
- Number of tillers ([2]; 15.63 g/ha foliar spray, 21 days): 2.8
- Leaf area [2, 4]: 1046.3 cm^2
- Shoot DW [2, 4]: 4.0 g
- Shoot FW [2, 4]: 40.5 g
- Number of tillers ([2]; 31.25 g/ha foliar spray, 21 days): 2.8
- Leaf area [2, 5]: 1060.3 cm^2
- Shoot DW [2, 5]: 4.2 g
- Shoot FW [2, 5]: 42.8 g
- activity at 7.81 g/ha ([2]; 7.81 g/ha foliar spray, 21 days, read-out: Leaf area % of control): 126%
- activity at 7.81 g/ha ([2]; 7.81 g/ha foliar spray, 21 days, read-out: Number of tillers % of control): 118%
- activity at 7.81 g/ha ([2]; 7.81 g/ha foliar spray, 21 days, read-out: Shoot DW % of control): 127%
- activity at 7.81 g/ha ([2]; 7.81 g/ha foliar spray, 21 days, read-out: Shoot FW % of control): 126%
- activity at 15.63 g/ha ([2]; 15.63 g/ha foliar spray, 21 days, read-out: Leaf area % of control): 118%
- activity at 15.63 g/ha ([2]; 15.63 g/ha foliar spray, 21 days, read-out: Number of tillers % of control): 114%
- activity at 15.63 g/ha ([2]; 15.63 g/ha foliar spray, 21 days, read-out: Shoot DW % of control): 116%
- activity at 15.63 g/ha ([2]; 15.63 g/ha foliar spray, 21 days, read-out: Shoot FW % of control): 116%
- activity at 31.25 g/ha ([2]; 31.25 g/ha foliar spray, 21 days, read-out: Leaf area % of control): 120%
- activity at 31.25 g/ha ([2]; 31.25 g/ha foliar spray, 21 days, read-out: Number of tillers % of control): 114%
- activity at 31.25 g/ha ([2]; 31.25 g/ha foliar spray, 21 days, read-out: Shoot DW % of control): 122%
- activity at 31.25 g/ha ([2]; 31.25 g/ha foliar spray, 21 days, read-out: Shoot FW % of control): 123%
- growth promoting (yield increasing) effect, dose response ([2]; by lowering the dose rate): more pronounced
- shoot tillering ([2]; foliar treatment): increased
- increase in fresh and dry weight related to control ([2]; foliar treatment, 7.81-31.25 g/ha): up to 26%
- Leaf area ([2]; foliar treatment, lowest dose rate gave the highest effect): increased
